Measurements taken from US20080175900A1, “PHARMACEUTICAL FORMULATIONS OF AN ANHYDRATE CRYSTAL FORM OF 2-(3-FLUORO-4-HYDROXYPHENYL)-7-VINYL-1,3-BENZOXAZOL-5-OL” (WYETH, priority 2006, published 2008).

Test: Conversion of the crystal form when suspended and stirred in a solvent at room temperature
Assay type: physicochemical
Source text: The anhydrate crystal form (Form B) can be converted to other crystal forms under suitable conditions. […] 6, 2006).

Compound: C=Cc1cc(O)cc2nc(-c3ccc(O)c(F)c3)oc12 [Form B, 2-(3-fluoro-4-hydroxyphenyl)-7-vinyl-1,3-benzoxazol-5-ol]
- crystal form obtained after suspending and stirring in ethanol (suspended and stirred in ethanol at room temperature for three days): another anhydrate crystal form is obtained
- crystal form obtained after suspending and stirring in methanol (suspended and stirred in methanol at room temperature for one day): another anhydrate crystal form is obtained
- crystal form obtained after suspending and stirring in water (suspended and stirred in water at room temperature for three days): a hydrate crystal form is obtained
